Where “and” joins values, the source holds several entries; their conditions need not be identical. Identical values can stand only once. Entries after “also recorded” stand apart in the source; their conditions may differ. Like-named read-outs stand apart in the source and are kept apart here.
Columns and labels:
[1] = test system: pUR288 lacZ Plasmid Mouse PHs; conditions: cited from earlier work; for Response in pUR288 lacZ Plasmid Mouse PHs gene mutation assay: ref citations provided
[2] = test system: MutaMouse FE1 lung epithelial cells; conditions: cited from earlier work
tk locus = conditions: S9; PhIP: human TK6 assay; 3-NBA: tk locus in human lymphoblast lines h1A1v2 and MCL-5; ref citations provided; cited from earlier work
[3] = test system: MutaMouse primary hepatocytes (PHs); assay: MutaMouse PH in vitro gene mutation assay (lacZ mutant frequency, P-Gal positive selection); conditions: for Significant MF increase over concurrent vehicle control at any concentration: Bonferroni-corrected contrasts; for Overall treatment effect on MF (Chi-squared test): P < 0.05 significant
[4] = test system: MutaMouse primary hepatocytes (PHs); assay: Cytotoxicity by relative increase in nuclear counts (RINC), flow cytometry; format: cell-based, mouse
Protocol: Cytotoxicity was measured using the relative increase in nuclear counts (RINC) metric. […] To normalize nuclei counts, 150 μL of a suspension of 6 μm fluorescently labeled polystyrene microspheres was added to each sample of lysate. […] Each microsphere‐lysate sample was diluted 1:10 prior to flow cytometric analysis. Data were acquired using a BD Biosciences FACScalibur flow cytometer (BD Biosciences, Mississauga, Ontario) equipped with a 488 nm laser. Instrumentation settings and data acquisition were facilitated using CellQuest Pro software (BD Biosciences). Data analysis was performed using Flowing Software version 2.5.1 (Turku Centre for Biotechnology, Turku, Finland). SYTOX® green and bead fluorescence emission were captured in the FL1 channel (530/30 band‐pass filter). Events were scored as nuclei following the application of key criteria (i.e., within a side scatter (SSC) vs forward scatter (FSC) region, within a region that excludes doublets, and within an FSC vs. FL1 region).

[5] = ref NTP, 1982, 1986, Kirkland et al., 2008, Fowler et al., 2012a, 2016; cited from earlier work
[6] = test system: p53‐deficient hamster cells; conditions: ref NTP, 1982, 1986, Kirkland et al., 2008, Fowler et al., 2012a, 2016; cited from earlier work
[7] = test system: p53‐functional human cells; conditions: ref NTP, 1982, 1986, Kirkland et al., 2008, Fowler et al., 2012a, 2016; cited from earlier work
[8] = test system: hematopoietic tissues (e.g., the bone marrow and blood); conditions: cited from earlier work
liver = test system: liver; design: method as in Rompelberg et al., 1996a; Rompelberg et al., 1996b; conditions: ref Rompelberg et al., 1996a, 1996b; cited from earlier work
MutaMouse = conditions: cited from earlier work; for Relative potency in the MutaMouse gene mutation assay in vivo: ref Gocke et al., 2009, Luijten et al., 2016, Hanna, 2018, Long et al.
[9] = 6 h exposure, 72 h sampling, no exogenous S9
[10] = at or above top concentrations tested
[11] = BMR 100% (twofold MF increase), PROAST covariate analysis
[12] = lower limit of 90% confidence interval of BMD100
[13] = maximum response, concentration not given
[14] = upper limit of 90% confidence interval of BMD100
[15] = ref White et al., 2003, Hanna, 2018

Compound	Response in MutaMouse FE1 gene mutation assay ([2]; S9, ref citations provided)	Response in MutaMouse PH gene mutation assay [3, 9]	BMD100, Exponential model [3, 11] [µg/mL]	BMD100, Hill model [3, 11] [µg/mL]	BMDL, Exponential model [3, 12] [µg/mL]	BMDL, Hill model [3, 12] [µg/mL]	MF fold increase over control in MutaMouse PHs [3, 13] [fold]	Relative mutagenic potency by BMD100 covariate analysis ([3]; ranking of positive chemicals)	BMDU, Exponential model [3, 14] [µg/mL]	BMDU, Hill model [3, 14] [µg/mL]	also measured
OC[C@@H](O)[C@@H](O)[C@H](O)[C@H](O)CO [D‐Mannitol]	Negative (−S9)	Negative	–	–	–	–	–	–	–	–	Response in pUR288 lacZ Plasmid Mouse PHs gene mutation assay [1]: Negative; Response in MLA (tk locus): Negative (±S9)
COc1ccc2nc3cc(Cl)ccc3c(NCCCNCCCl)c2c1.Cl.Cl [ICR 191, 6‐chloro‐9‐[3‐(2‐chloroethylamino)propylamino]‐2‐methoxyacridine dihydrochloride]	–	negative result	–	–	–	–	–	–	–	–	Significant MF increase over concurrent vehicle control at any concentration [3]: did not yield a significant increase in MF; Overall treatment effect on MF (Chi-squared test) [3]: nor was a significant treatment effect detected
CC(C)(C)c1cc(O)ccc1O [TBHQ, tertiary butylhydroquinone]	–	Negative	–	–	–	–	–	–	–	–	Cytotoxicity (RINC) in words [4]: relatively high RINC obtained at the top concentration; Result in in vitro chromosome aberration test [5]: positive; Result for micronucleus [6]: positive; Result in in vitro micronucleus assay [7]: negative results; Genotoxicity result in vivo ([8]; in vivo): negative results in vivo; Significant MF increase over concurrent vehicle control at any concentration [3]: Neither TBHQ nor eugenol yielded a significant increase in MF
O=C1c2ccccc2-c2ccc([N+](=O)[O-])c3cccc1c23 [3‐NBA, 3‐nitrobenzanthrone]	Positive (±S9)	positive results; also recorded: positive responses	0.15	0.15	0.0689	0.0689	3.6	most potent	0.373	0.363	Cytotoxicity (RINC) in words [4, 10]: sharp increase in cytotoxicity; MF fold increase above solvent control in MutaMouse FE1 cells ([2]; ref Arlt et al., 2008): ~ five; MF fold-increase over control ([3]; 0.5 μg/mL, 6 h exposure, 72 h sampling): 8.2 fold
CN(C)N=O [DMN, dimethylnitrosamine]	–	positive responses	7.6	7.6	3.18	3.18	14.4	less potent than 3‐NBA and BaP	21.5	16.8	MF fold-increase over control ([3]; 200 μg/mL, 6 h exposure, 72 h sampling): 14.4 fold
C=CCc1ccc(O)c(OC)c1 [Eugenol]	–	equivocal	–	–	–	–	–	–	–	–	Cytotoxicity (RINC) in words [4, 10]: could not be tested at higher concentrations due to cytotoxicity; also recorded: too cytotoxic to test at higher concentrations; Result in UDS assay (liver): negative results; Result in in vitro chromosome aberration test [5]: positive; Result for micronucleus [6]: positive; Result in in vitro micronucleus assay [7]: negative results; Genotoxicity result in vivo ([8]; data limited, mainly hematopoietic tissues, ref Kirkland et al., 2016): negative results in vivo; Result in in vivo MutaMouse assay (MutaMouse; liver, ref Rompelberg et al., 1996a, Rompelberg et al., 1996b): negative results; Significant MF increase over concurrent vehicle control at any concentration [3]: absence of a significant response at any concentration tested; also recorded: Neither TBHQ nor eugenol yielded a significant increase in MF; Overall treatment effect on MF (Chi-squared test) [3]: significant result for the overall treatment effect; Overall treatment effect on MF (Chi-squared test) ([3]; listed as eugenol): significant treatment effect
aflatoxin B1 [AFB1]	–	–	–	–	–	–	–	–	–	–	RINC [4]: 0.6 and 0.3; MF fold increase in MutaMouse FE1 cells [2]: ~ three; Response in MutaMouse FE1 gene mutation assay [2]: Positive (±S9); BMD100, Exponential model [3]: 0.47 µg/mL; BMD100, Hill model [3]: 0.47 µg/mL; BMDL, Exponential model [3]: 0.193 µg/mL; BMDL, Hill model [3]: 0.193 µg/mL; BMDU, Exponential model [3]: 1.47 µg/mL; BMDU, Hill model [3]: 1.47 µg/mL; MF fold increase over control in MutaMouse PHs [3]: 3.6 fold; MF fold-increase over control [3]: 3.6 fold and 2.5 fold; Relative mutagenic potency by BMD100 covariate analysis [3]: most potent; Response in MutaMouse PH gene mutation assay [3]: positive responses
CC(=O)Nc1ccc2c(c1)Cc1ccccc1-2 [2‐AAF, 2‐acetylaminofluorene]	Positive (±S9)	positive responses	1.9	1.9	0.964	0.964	2.6	less potent than 3‐NBA and BaP	3.96	3.96	MF fold increase in MutaMouse FE1 cells [2, 15]: ~ 1.7 fold; MF fold-increase over control ([3]; 5 μg/mL, 6 h exposure, 72 h sampling): 2.6 fold
Cn1c(N)nc2ncc(-c3ccccc3)cc21 [PhIP, 2‐amino‐1‐methyl‐6‐phenylimidazo[4,5‐b]pyridine]	Positive (+S9)	positive responses	2.6	2.6	1.05	1.05	3.7	less potent than 3‐NBA and BaP	7.8	7.05	MF fold increase in MutaMouse FE1 cells [2, 15]: ~ 5.5 fold; MF fold-increase over control ([3]; 10 μg/mL, 6 h exposure, 72 h sampling): 3.7 fold
CC1(C)S[C@@H]2[C@H](NC(=O)[C@H](N)c3ccccc3)C(=O)N2[C@H]1C(=O)O [Ampicillin trihydrate]	–	Negative	–	–	–	–	–	–	–	–	–
CCN(N=O)C(N)=O [ENU, N‐ethyl‐N‐nitrosourea]	Positive (−S9)	Positive	76	76	36.6	36.6	4.2	–	178	170	MF fold increase in pUR288 lacZ plasmid mouse PHs ([1]; ref Luijten et al., 2016): ~ 4 fold; Response in pUR288 lacZ Plasmid Mouse PHs gene mutation assay [1]: Positive; MF fold increase in MutaMouse FE1 cells ([2]; ref White et al., 2003): ~ 6 fold; Relative potency in the MutaMouse gene mutation assay in vivo (MutaMouse; liver and bone marrow): more potent than BaP; Relative potency in the MutaMouse gene mutation assay in vivo (MutaMouse; small intestine, versus BaP): of equivalent potency; MF fold-increase over control ([3]; 1,000 μg/mL, 6 h exposure, 72 h sampling): 4.2 fold

Reference: PMC6593967, “The development and prevalidation of an in vitro mutagenicity assay based on MutaMouse primary hepatocytes, Part II: Assay performance for the identification of mutagenic chemicals” (Environmental and Molecular Mutagenesis, 2019)
